Tests used:
[1] = biological target: T1, human IRAK-4 (Homo sapiens, UniProt Q9NWZ3); experiment: Phosphorylation IC50 determination for human IRAK-4 (ADP-Glo Kinase Assay); settings: human IRAK-4, substrate RIP140, Km ATP; read-out: IRAK4 ADPglo biochemical assay IC50
T1 construct: purchased Carna Biosciences 09 145
T1 sequence (Q9NWZ3 1-460): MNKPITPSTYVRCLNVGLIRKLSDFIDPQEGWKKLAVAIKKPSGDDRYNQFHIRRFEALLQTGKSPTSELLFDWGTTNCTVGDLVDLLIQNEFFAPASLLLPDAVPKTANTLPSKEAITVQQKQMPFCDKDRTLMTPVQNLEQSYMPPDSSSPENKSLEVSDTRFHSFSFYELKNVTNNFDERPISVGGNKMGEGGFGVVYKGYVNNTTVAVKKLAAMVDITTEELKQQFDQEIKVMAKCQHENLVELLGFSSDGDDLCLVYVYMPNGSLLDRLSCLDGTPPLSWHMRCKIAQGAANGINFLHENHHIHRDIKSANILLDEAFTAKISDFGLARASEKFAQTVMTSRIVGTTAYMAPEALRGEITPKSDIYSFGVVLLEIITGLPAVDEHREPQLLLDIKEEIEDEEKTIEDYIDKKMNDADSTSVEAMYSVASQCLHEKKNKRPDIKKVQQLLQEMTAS
Protocol: The phosphorylation of the substrate RIP140 (SEQ ID1) by IRAK4 at Km ATP was detected with the ADP-Glo Kinase Assay (Promega, Cat #V9103), a luminescent kinase assay which measures the ADP formed from a kinase reaction. (Zegzouti et al. 2009) In a second step the kinase reaction was terminated and all the remaining ATP was depleted. In a final step the ADP was converted into ATP and this newly synthesized ATP was measured by using a luciferase/luciferin reaction with a luminescent reader. The luminescent signal positively correlated with kinase activity, in particular kinase inhibition giving a decrease of the luminescent signal.
For the semi-automated assay, the positive control (100% inhibition) was prepared by diluting 10 mM staurosporine stock mixture (20 μL) in water (3.8 mL) and DMSO (180 μL), thus resulting in a […] staurosporine solution at 1% DMSO (final concentration after further dilution in the kinase reaction).
For the automated assay, no pre-dilution of the 10 mM staurosporine stock was made. 10 mM staurosporine was spotted directly in the assay plate using acoustic dispensing and complemented with DMSO to result in a similar final concentration as mentioned above.
For the semi-automated assay, the negative control (0% inhibition) was prepared by mixing water (3.8 mL) and DMSO (200 μL) resulting in a final concentration of 1% DMSO after further dilution in the kinase reaction. For the automated assay no pre-dilution of DMSO was done. 100% DMSO was spotted directly on the assay plate.
The assay buffer solution was prepared at a concentration corresponding to 5 fold the final (most diluted) assay concentration by mixing a solution of 125 mM TRIS pH 7.5+0.05% Triton X-100+2.5 mM EGTA (5.27 mL) with 1M mgCl2 (72 μL), 1M DTT (57.6 μL), and 200 mM MnCl2 (360 μL).
For example, for the semi-automated method, the enzyme-substrate mixture was prepared by mixing water (3999 μL), assay buffer solution (1380 μL), 1 mM RIP140 (138 μL—SEQ ID1), and 200 ng/mL IRAK 4 (3.45 μL Carna Biosciences, 09 145).
For semi-automated method, the ATP mixture was prepared at a concentration corresponding to 2.5 fold the final (most diluted) assay concentration of the semi-automated method and 1.5 fold the final (most diluted) assay concentration of the automated method. For example, for the semi-automated method, the ATP mixture was prepared by mixing water (4126 μL), assay buffer solution (1380 μL), and 10 mM ATP (13.80 μL).
The assay are performed either in a semi-automated or fully automated manner. The assay volume and the incubation time of the ADP detection were different accordingly the method used.
The compounds were prepared as a serial dilution of 10 point dose responses with 1/5 dilution steps in 100% DMSO starting from 2 mM highest concentration, diluted 1/20 in water. 1 μL was transferred dry to the assay plates.
On each assay plate 32 wells of each control (positive & negative) were added, followed by 2 μL enzyme-substrate mixture.
The reaction was started by adding 2 μL diluted ATP (final concentration Km ATP) on the assay plates. Plates were centrifuged for a few seconds at 1000 rpm followed by an incubation at r.t. for 120 min.
The reactions were stopped and the unconsumed ATP was depleted by adding 5 μL ADP-glo Reagent (Promega, Cat #V9103) to the reaction. The plates were quickly centrifuged at 1000 rpm and incubated at r.t. for 40 min corresponding to full ATP depletion.
The ADP was converted back to ATP and luciferase and luciferin were introduced to detect ATP by adding 10 μL kinase detection reagent (Promega, Cat #V9103) to the reaction. The plates were centrifuged for a few seconds at 1000 rpm and incubated at r.t. for a further 30 min.
Luminescent read out was performed on an Envision luminescent reader (Perkin Elmer).
For the automated assay, the compounds were prepared as a serial dilution of 10 point dose responses with 1/5 dilution steps in 100% DMSO starting from 2 mM highest concentration. […]

[2] = tested on: Human Hepatocyte; experiment: Metabolic stability in human hepatocytes; type: in vitro ADME; settings: human cryopreserved hepatocytes, 1 μM
Protocol: (§1) The aim of this assay is to determine the metabolic stability of the compound in hepatocytes (cryopreserved) of different species. Low hepatocyte stability may result in the formation of unwanted metabolites, high clearance, and therefore is not desirable.
(§2) A 10 mM stock solution of test compound in DMSO was first diluted in DMSO to 3 mM, and then in modified Krebs-Henseleit buffer (Sigma, K3753) to 5 μM. This compound dilution was added to a suspension of pooled cryopreserved hepatocytes (BioreclamationIVT) at 37° C. under gentle shaking.
(§3) Final reaction conditions were: 1 μM of test compound, 0.03% DMSO, 0.5 million viable hepatocytes/mL, and 75 μL incubation volume.
(§4) Testosterone (1 μM) and 7-hydroxycoumarin (1 μM) were used, respectively as phase I and phase II metabolic reaction controls.
(§5) After 0, 10, 20, 45, 90, 120 and 180 min of incubation, the reaction was terminated with 225 μL of MeCN:MeOH (2:1) containing 100 ng/mL of diclofenac as analytical internal standard. Samples were mixed, centrifuged and the supernatant analyzed by LC-MS/MS.
(§6) The instrument responses (ratios of test compound and internal standard peak areas) were referenced to the zero time point samples (considered as 100%) in order to determine the percentage of compound remaining.
(§7) Plots of percentage compound remaining were used to determine the intrinsic clearance in the hepatocyte incubations using the following equations:
(§8) Scaled Clint [L/h/kg]=Clint [μL/min/10^6 cells]*#(10) cells/g liver*60*(1/10^6) Scaled Clint unbound [L/h/kg]=Clint [L/h/kg]/Fu,inc where: fu,inc equals hepatocyte binding, derived from microsomal binding (fu,mic) by following equation: […]

[3] = tested on: Mouse Hepatocyte; experiment: Metabolic stability in mouse hepatocytes; type: in vitro ADME; settings: mouse cryopreserved hepatocytes, 1 μM
Protocol: as §1, §2, §3, §4, §5, §6, §7, §8

IC50 [1] [nM]	Human Hepatocyte stability (Perc. remaining at 90 min) [2] [Perc.]	Mouse Hepatocyte stability (Perc. remaining at 90 min) [3] [Perc.]	SMILES
10 to 50			COc1cc2nc(C3COCCO3)cn2cc1NC(=O)c1cccn(C2CCC2)c1=O (stereo not shown) [Compound 5, 1-cyclobutyl-N-[2-(1,4-dioxan-2-yl)-7-methoxy-imidazo[1,2-a]pyridin-6-yl]-2-oxo-pyridine-3-carboxamide]
0.1 to 5			COc1cc2nc(C3CCS(=O)(=O)CC3)cn2cc1NC(=O)c1cccn(C2CC2)c1=O [Compound 23, 1-cyclopropyl-N-(2-(1,1-dioxidotetrahydro-2H-thiopyran-4-yl)-7-methoxyimidazo[1,2-a]pyridin-6-yl)-2-oxo-1,2-dihydropyridine-3-carboxamide]
5 to 10	99.15	80.6	CC(F)(F)c1cccc(C(=O)Nc2cn3cc(C4COCCO4)nc3cc2C(N)=O)n1 (stereo not shown) [Compound 11, 6-(6-(1,1-difluoroethyl)picolinamido)-2-(1,4-dioxan-2-yl)imidazo[1,2-a]pyridine-7-carboxamide]
5 to 10	101.5	103.95	COc1cc2nc(C3COCCO3)cn2cc1NC(=O)c1cccn(C2CC2)c1=O (racemic) [Compound 1, 1-cyclopropyl-N-[2-(1,4-dioxan-2-yl)-7-methoxy-imidazo[1,2-a]pyridin-6-yl]-2-oxo-pyridine-3-carboxamide]
5 to 10			NC(=O)c1cc2nc(C3COCCO3)cn2cc1NC(=O)c1cccc(C(F)(F)F)n1 (stereo not shown) [Compound 6, 2-(1,4-dioxan-2-yl)-6-[[6-(trifluoromethyl)pyridine-2-carbonyl]amino]imidazo[1,2-a]pyridine-7-carboxamide]
5 to 10			COc1cc2nc(C3CCOCC3)cn2cc1NC(=O)c1cccn(C2CC2)c1=O [Compound 3, (1-cyclopropyl-N-[7-methoxy-2-(oxan-4-yl)imidazo[1,2-a]pyridin-6-yl]-2-oxopyridine-3-carboxamide)]
5 to 10	92.1	73.3	CNC(=O)c1cc2nc(C3COCCO3)cn2cc1NC(=O)c1cccc(C(F)(F)F)n1 (stereo not shown) [Compound 9, 2-(1,4-dioxan-2-yl)-N-methyl-6-(6-(trifluoromethyl)picolinamido)imidazo[1,2-a]pyridine-7-carboxamide]
10 to 50			COc1cc2nc(C3CCOCC3)cn2cc1NC(=O)c1cccc(C(F)(F)F)n1 [Compound 2, N-(7-methoxy-2-tetrahydropyran-4-yl-imidazo[1,2-a]pyridin-6-yl)-6-(trifluoromethyl)pyridine-2-carboxamide]
5 to 10			COc1cc2nc(C3COCCO3)cn2cc1NC(=O)c1cccn(C2CC2)c1=O (single isomer, unassigned) [Compound 7, 1-cyclopropyl-N-[2-(1,4-dioxan-2-yl)-7-methoxy-imidazo[1,2-a]pyridin-6-yl]-2-oxo-pyridine-3-carboxamide]
5 to 10			COc1cc2nc(C3COCCO3)cn2cc1NC(=O)c1cccn(C2CC2)c1=O (single isomer, unassigned) [Compound 8, 1-cyclopropyl-N-[2-(1,4-dioxan-2-yl)-7-methoxy-imidazo[1,2-a]pyridin-6-yl]-2-oxo-pyridine-3-carboxamide]
